# Test results: patent publication US20240116985A1, “STAPLED PEPTIDES AND METHODS THEREOF” (priority 2020, published 2024)
# What was measured:
# [1] = target: T1, full-length B-Catenin (Uniprot ID P35222) (Homo sapiens, UniProt P35222); test: Alphascreen binding assay (beta-catenin / biotin-TCF4 10-53)
# T1 construct: 65 nM full-length B-Catenin (Uniprot ID P35222)
# T1 sequence (P35222 1-781): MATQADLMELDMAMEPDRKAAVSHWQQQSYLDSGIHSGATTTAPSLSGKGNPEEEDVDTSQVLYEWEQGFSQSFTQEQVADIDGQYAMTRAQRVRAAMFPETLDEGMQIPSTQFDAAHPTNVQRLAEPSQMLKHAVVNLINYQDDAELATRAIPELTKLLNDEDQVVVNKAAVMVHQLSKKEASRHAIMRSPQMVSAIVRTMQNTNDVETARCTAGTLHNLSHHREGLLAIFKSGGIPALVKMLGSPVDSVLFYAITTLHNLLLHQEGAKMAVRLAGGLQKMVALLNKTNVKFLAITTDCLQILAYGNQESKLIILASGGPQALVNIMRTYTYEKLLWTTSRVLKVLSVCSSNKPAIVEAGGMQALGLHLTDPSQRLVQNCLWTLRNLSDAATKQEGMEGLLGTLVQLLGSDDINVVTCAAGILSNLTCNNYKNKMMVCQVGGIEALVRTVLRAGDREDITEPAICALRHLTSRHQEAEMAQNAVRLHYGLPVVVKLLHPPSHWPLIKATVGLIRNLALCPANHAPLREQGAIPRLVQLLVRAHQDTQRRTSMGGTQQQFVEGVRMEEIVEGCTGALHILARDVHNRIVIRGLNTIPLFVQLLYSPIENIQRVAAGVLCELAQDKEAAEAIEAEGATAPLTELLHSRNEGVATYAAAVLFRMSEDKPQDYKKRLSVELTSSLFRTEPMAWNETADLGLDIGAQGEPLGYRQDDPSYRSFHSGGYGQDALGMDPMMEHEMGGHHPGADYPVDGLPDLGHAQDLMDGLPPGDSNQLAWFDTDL
# Experimental: In some embodiments, an assay is an Alphascreen binding assay. A useful protocol is described below as an example.
# Alphascreen binding assay: Using the AlphaScreen Histidine (Nickel Chelate) Detection Kit (PerkinElmer), peptide solutions were prepared in buffer (50 mM Tris pH 8.0, 250 mM NaCl, 2% glycerol, 0.03% Tween-20, 0.01% TritonX-100, 0.1% BSA w/v) using a 3-fold serial dilution from 10 uM to 5 nM. Probe solution (65 nM full-length B-Catenin (Uniprot ID P35222), mixed with 10 nM biotin labeled TCF4 residues 10-53 (Uniprot ID Q9NQB0) peptide in buffer) was prepared and 4 uL per well was plated in a white polystyrene 384-well plate (Corning). Equal volume of the titrated peptide was added to the plate and incubated for 15 minutes at 20° C. Then 4 uL of donor and 4 uL acceptor beads at 10 ug/mL were added to the plate, for a 16 uL reaction pool and protected from light for 60 minutes at 20° C. prior to read. Reads were performed on a CLARIOstar plate reader (BMG Labtech) in duplicate, and data were fitted to a 1:1 binding model with hill slope using an in-house script. All provided concentrations are final concentrations.
# CHI Log D procedure = assay type: physicochemical; details: for CHI Log D: pH 7.4; for chromatographic logD: pH 7.4, CHI Log D
Compound,EC50 [1] [nM],CHI Log D (CHI Log D procedure),chromatographic logD (CHI Log D procedure)
"CC(=O)N1CCC[C@]12CC=CCCCC1(CCCC=CCCCCCC[C@@](C)(C(=O)N[C@@H](Cc3ccccc3)C(=O)N[C@@H](Cc3c[nH]c4ccccc34)C(=O)NC(C)(C)C(N)=O)NC(=O)[C@H](C(C)C)NC(=O)[C@H](Cc3ccccc3)NC(=O)[C@H](C)NC(=O)[C@H](C)NC(=O)[C@H](CCC(=O)O)NC(=O)[C@H](CC(=O)O)NC1=O)NC(=O)[C@H](C)NC(=O)[C@H](CC(=O)O)NC2=O (stereo partly drawn) [I-133, Ac-PL3-Asp-Ala-B5-Asp-Glu-Ala-Ala-Phe-Val-S8-Phe-Trp-Aib-NH2]",495,2.383,–
"CC(=O)N1CCC[C@]12CC=CCCCC1(CCCC=CCCCCCC[C@@](C)(C(=O)N[C@@H](Cc3ccccc3)C(=O)N[C@@](C)(Cc3c[nH]c4ccccc34)C(=O)N[C@@H](CCC(N)=O)C(N)=O)NC(=O)[C@H](C(C)C)NC(=O)[C@H](Cc3ccccc3)NC(=O)[C@H](C)NC(=O)[C@H](C)NC(=O)[C@H](CCC(=O)O)NC(=O)[C@H](CC(=O)O)NC1=O)NC(=O)[C@H](C)NC(=O)[C@H](CC(=O)O)NC2=O (stereo partly drawn) [I-136, Ac-PL3-Asp-Ala-B5-Asp-Glu-Ala-Ala-Phe-Val-S8-Phe-aMeW-Gln-NH2]",3300,2.136,–
"CC(=O)N1CCC[C@]12CC=CCCCC1(CCCC=CCCCCCC[C@@](C)(C(=O)N[C@@H](Cc3ccccc3)C(=O)N[C@@H](Cc3ccc4ccccc4c3)C(N)=O)NC(=O)[C@H](C(C)C)NC(=O)[C@H](Cc3ccccc3)NC(=O)[C@H](C)NC(=O)[C@H](C)NC(=O)[C@H](CCC(=O)O)NC(=O)[C@H](CC(=O)O)NC1=O)NC(=O)[C@H](C)NC(=O)[C@H](CC(=O)O)NC2=O (stereo partly drawn) [I-141, Ac-PL3-Asp-Ala-B5-Asp-Glu-Ala-Ala-Phe-Val-S8-Phe-2NapA-NH2]",5450,–,2.43
"CC(=O)N1CCC[C@]12CC=CCCCC1(CCCC=CCCCCCC[C@@](C)(C(=O)N[C@@H](Cc3ccccc3)C(=O)N[C@@H](Cc3c[nH]c4ccc(F)cc34)C(=O)N[C@@H](CCC(N)=O)C(N)=O)NC(=O)[C@H](C(C)C)NC(=O)[C@H](Cc3ccccc3)NC(=O)[C@H](C)NC(=O)[C@H](C)NC(=O)[C@H](CCC(=O)O)NC(=O)[C@H](CC(=O)O)NC1=O)NC(=O)[C@H](C)NC(=O)[C@H](CC(=O)O)NC2=O (stereo partly drawn) [I-146, Ac-PL3-Asp-Ala-B5-Asp-Glu-Ala-Ala-Phe-Val-S8-Phe-5FW-Gln-NH2]",1220,–,2
"CC[C@H](C)[C@H](NC(=O)[C@H](CC(=O)O)NC(C)=O)C(=O)N[C@]1(C)CCN(C)C(=O)OCC=CCCCCC[C@@](C)(C(=O)N[C@@H](Cc2ccccc2)C(=O)N[C@@H](Cc2c[nH]c3ccccc23)C(=O)N[C@@H](Cc2c[nH]cn2)C(N)=O)NC(=O)[C@H](CCC(N)=O)NC(=O)[C@H](Cc2ccccc2)NC(=O)[C@H](C)NC(=O)[C@H](C)NC(=O)[C@H](CC(=O)O)NC(=O)[C@H](CC(=O)O)NC1=O [I-150, Ac-Asp-Ile-RdN-Asp-Asp-Ala-Ala-Phe-Gln-S7-Phe-Trp-His-NH2]",1940,1.297,–
"CC[C@H](C)[C@H](NC(=O)[C@H](CC(=O)O)NC(C)=O)C(=O)N[C@]1(C)CCN(C)C(=O)OCC=CCCCCC[C@@](C)(C(=O)N[C@@H](Cc2ccccc2)C(=O)N[C@@H](Cc2c[nH]c3ccccc23)C(N)=O)NC(=O)[C@H](CCC(N)=O)NC(=O)[C@H](Cc2ccccc2)NC(=O)[C@H](C)NC(=O)[C@H](C)NC(=O)[C@H](CC(=O)O)NC(=O)[C@H](CC(=O)O)NC1=O [I-151, Ac-Asp-Ile-RdN-Asp-Asp-Ala-Ala-Phe-Gln-S7-Phe-Trp-NH2]",5500,–,1.35
"CC[C@H](C)[C@H](NC(=O)[C@H](CC(=O)O)NC(=O)[C@H](C)NC(C)=O)C(=O)N[C@]1(C)CCN(C)C(=O)OCC=CCCCCC[C@@](C)(C(=O)N[C@@H](Cc2ccccc2)C(=O)N[C@@H](Cc2c[nH]c3ccccc23)C(=O)N[C@@H](C)C(N)=O)NC(=O)[C@H](C)NC(=O)[C@H](Cc2ccccc2)NC(=O)[C@H](C)NC(=O)[C@H](C)NC(=O)[C@H](CCC(=O)O)NC(=O)[C@H](CC(=O)O)NC1=O [I-155, Ac-Ala-Asp-Ile-RdN-Asp-Glu-Ala-Ala-Phe-Ala-S7-Phe-Trp-Ala-NH2]",734,1.415,–
"CC(=O)N[C@@H](C)C(=O)N[C@@H](CC(=O)O)C(=O)N[C@@H](C)C(=O)N[C@]1(C)CCN(C)C(=O)OCC=CCCCCC[C@@](C)(C(=O)N[C@@H](Cc2ccccc2)C(=O)N[C@@H](Cc2c[nH]c3ccccc23)C(=O)N[C@@H](Cc2c[nH]cn2)C(N)=O)NC(=O)[C@H](CCC(N)=O)NC(=O)[C@H](Cc2ccccc2)NC(=O)[C@H](C)NC(=O)[C@H](C)NC(=O)[C@H](CCC(=O)O)NC(=O)[C@H](CC(=O)O)NC1=O [I-156, Ac-Ala-Asp-Ala-RdN-Asp-Glu-Ala-Ala-Phe-Gln-S7-Phe-Trp-His-NH2]",4180,–,1.07
"CC(=O)NC(C)(C)C(=O)N[C@@H](CC(=O)O)C(=O)N[C@@H](C)C(=O)N[C@]1(C)CCCCCCC=CCOC(=O)N2CC[C@@](C(=O)N[C@@H](Cc3ccccc3)C(=O)N[C@@H](Cc3c[nH]c4ccccc34)C(=O)N[C@@H](CCC(N)=O)C(N)=O)(C2)NC(=O)[C@H](C(C)C)NC(=O)[C@H](Cc2ccccc2)NC(=O)[C@H](C)NC(=O)[C@H](C)NC(=O)[C@H](CCC(=O)O)NC(=O)[C@H](CC(=O)O)NC1=O [I-158, Ac-Aib-Asp-Ala-R8-Asp-Glu-Ala-Ala-Phe-Val-PyrS-Phe-Trp-Gln-NH2]",2170,1.23,–
"CC(=O)NC(C)(C)C(=O)N[C@@H](CC(=O)O)C(=O)N[C@@H](C)C(=O)N[C@]1(C)CCCCCCC=CCOC(=O)N2CC[C@@](C(=O)N[C@@H](Cc3ccccc3)C(=O)N[C@@H](Cc3c[nH]c4ccccc34)C(=O)NC(C)(C)C(N)=O)(C2)NC(=O)[C@H](C(C)C)NC(=O)[C@H](Cc2ccccc2)NC(=O)[C@H](C)NC(=O)[C@H](C)NC(=O)[C@H](CCC(=O)O)NC(=O)[C@H](CC(=O)O)NC1=O [I-160, Ac-Aib-Asp-Ala-R8-Asp-Glu-Ala-Ala-Phe-Val-PyrS-Phe-Trp-Aib-NH2]",3240,1.49,–
"COc1ccc2[nH]cc(C[C@H](NC(=O)[C@H](Cc3ccccc3)NC(=O)[C@]3(C)CCCCCCC=CCCCC4(CCCC=CC[C@]5(CCCN5C(C)=O)C(=O)N[C@@H](CC(=O)O)C(=O)N[C@@H](C)C(=O)N4)C(=O)N[C@@H](CC(=O)O)C(=O)N[C@@H](CCC(=O)O)C(=O)N[C@@H](C)C(=O)N[C@@H](C)C(=O)N[C@@H](Cc4ccccc4)C(=O)N[C@@H](C(C)C)C(=O)N3)C(=O)N[C@@H](CCC(N)=O)C(N)=O)c2c1 (stereo partly drawn) [I-165, Ac-PL3-Asp-Ala-B5-Asp-Glu-Ala-Ala-Phe-Val-S8-Phe-5MeOW-Gln-NH2]",1230,–,2
"CC(=O)N1CCC[C@]12CC=CCCCC1(CCCC=CCCCCCC[C@@](C)(C(=O)N[C@@H](Cc3ccccc3)C(=O)N[C@@H](CC3CNc4ccccc43)C(=O)N[C@@H](CCC(N)=O)C(N)=O)NC(=O)[C@H](C(C)C)NC(=O)[C@H](Cc3ccccc3)NC(=O)[C@H](C)NC(=O)[C@H](C)NC(=O)[C@H](CCC(=O)O)NC(=O)[C@H](CC(=O)O)NC1=O)NC(=O)[C@H](C)NC(=O)[C@H](CC(=O)O)NC2=O (stereo partly drawn) [I-167, Ac-PL3-Asp-Ala-B5-Asp-Glu-Ala-Ala-Phe-Val-S8-Phe-H2Trp-Gln-NH2]",6200,1.927,–
